In ChEMBL document CHEMBL1127030, “3-Tetrahydrofuran and pyran urethanes as high-affinity P2-ligands for HIV-1 protease inhibitors” (J Med Chem, 1993):
pIC50: −log10 of the molar value.

Experiments:
[1] = biological target: Human immunodeficiency virus type 1 protease (Human immunodeficiency virus 1, UniProt Q72874); experiment: Inhibition of HIV-1 protease
[2] = tested on: Human immunodeficiency virus 1; experiment: Inhibitory concentration was evaluated to inhibit 95% of HIV-1 spread in MT4 cells

pIC50 [1]	Structure (SMILES)	IC95 [2]
6.51	CC(C)(C)NC(=O)[C@@H]1C[C@@H]2CCCC[C@@H]2CN1C[C@@H](O)[C@H](Cc1ccccc1)NC(=O)O[C@@H]1CCCOC1	–
6.41	CC(C)(C)NC(=O)[C@@H]1C[C@@H]2CCCC[C@@H]2CN1C[C@@H](O)[C@H](Cc1ccccc1)NC(=O)O[C@H]1CCCOC1	–
> 10.52	O=C(N[C@@H](Cc1ccccc1)[C@@H](O)C[C@@H](Cc1ccccc1)C(=O)N[C@H]1c2ccccc2C[C@H]1O)O[C@H]1CCCOC1	50 nM
< 5.52	CC(C)(C)NC(=O)[C@@H]1C[C@@H]2CCCC[C@@H]2CN1C[C@@H](O)[C@H](Cc1ccccc1)NC(=O)OC(C)(C)C	–
> 10.52	O=C(N[C@@H](Cc1ccccc1)[C@@H](O)C[C@@H](Cc1ccccc1)C(=O)N[C@H]1c2ccccc2C[C@H]1O)O[C@@H]1CCCOC1	25 nM
7.31	CC(C)(C)NC(=O)[C@@H]1C[C@@H]2CCCC[C@@H]2CN1C[C@@H](O)[C@H](Cc1ccccc1)NC(=O)O[C@@H]1C=CCOC1	–
6.50	CC(C)(C)NC(=O)[C@@H]1C[C@@H]2CCCC[C@@H]2CN1C[C@@H](O)[C@H](Cc1ccccc1)NC(=O)O[C@H]1C=CCOC1	–

Further lines, the compound ahead of its results:

Structure (SMILES)	pIC50 [1]	IC95 [2]
O=C(N[C@@H](Cc1ccccc1)[C@@H](O)C[C@@H](Cc1ccccc1)C(=O)N[C@H]1c2ccccc2C[C@H]1O)OC1CCCC1	9.48	400 nM
O=C(N[C@@H](Cc1ccccc1)[C@@H](O)C[C@@H](Cc1ccccc1)C(=O)N[C@H]1c2ccccc2C[C@H]1O)O[C@H]1CCOC1	> 10.52	3 nM
O=C(N[C@@H](Cc1ccccc1)[C@@H](O)C[C@@H](Cc1ccccc1)C(=O)N[C@H]1c2ccccc2C[C@H]1O)O[C@@H]1CCOC1	10.52	100 nM
O=C(N[C@@H](Cc1ccccc1)[C@@H](O)C[C@@H](Cc1ccccc1)C(=O)N[C@H]1c2ccccc2C[C@H]1O)OC1CCOCC1	8.91	–
CC(C)(C)OC(=O)N[C@@H](Cc1ccccc1)[C@@H](O)C[C@@H](Cc1ccccc1)C(=O)N[C@H]1c2ccccc2C[C@H]1O	–	400 nM
